Test results as given in patent US20250360187A1, “HEPCIDIN MIMETICS FOR TREATMENT OF SICKLE CELL DISEASE” (Protagonist Therapeutics, Inc., priority 2022, published 2025).
“Also recorded” adds a separate entry of the source. Where a SMILES comes first, the peptide text is derived from it.

Tested on: Townes SCD mice
Assay: Efficacy study of hepcidin mimetics in a mouse model of sickle cell disease (CBC, serum hemolysis biomarkers, spleen and liver weights)
Assay type: in vivo
Settings: for % Retics / Abs Retics / HCT / HGB / MCH / MCHC / MCV / RBC / LDH / Total bilirubin: 4 weeks, mean ± SD; for LDH / Total bilirubin: serum
Method: Compound 46, a hepcidin mimetic, was administered subcutaneously at 1.0 mg/kg (group 3, N=9) or 2.5 mg/kg (group 4, N=9) in Townes SCD mice. 36 Townes SCD and 6 129S1/SvlmJ (wild-type), female mice, 5 weeks old upon delivery. A control group of wild-type mice (groups 1, N=6) was treated with vehicle as well as another SCD mice (group 2, N=9). All mice were dosed three times per week (TIW). All mice were maintained on an iron-adjusted diet (TD.140258, 35 ppm iron) throughout the study. Collections and necropsies were performed 24 hours post-last dose of compound or vehicle. After 4 weeks on study, animals from each group were euthanized, EDTA whole blood collected for CBC and serum was collected for hemolysis biomarker analysis. Spleens and livers were weighed at terminus. Liver, spleen, kidney, heart and brain were collected for future analysis. Serum and urine were collected to analyze chemistry markers, such as bilirubin, LDH (lactate dehydrogenase), haptoglobin, urine creatinine, urine total protein and urine urea nitrogen.
As shown in FIG. 4A and FIG. 4B, reticulocytes were counted both with the automated analyzer as well as manually from a new methylene blue stained blood smear by counting the number of positive stained cells encountered in 500 erythrocytes and calculating the percentage.

[1] = SCD mice, compared to vehicle, across doses
[2] = Townes SCD mice, Dose 1 (1.0 mg/kg s.c. TIW)
[3] = Townes SCD mice, Dose 2.5 (2.5 mg/kg s.c. TIW)

With CCCCCCCCCCCCCCCC(=O)N[C@@H](CCC(=O)NCCCC[C@@H]1NC(=O)[C@H]([C@@H](C)CC)NC(=O)[C@@H](NC(=O)[C@@H]2CCCN2C(=O)[C@H](Cc2ccccc2)NC(=O)[C@H](Cc2cnc[nH]2)NC(=O)[C@@H](NC(=O)[C@H](CCC(=O)O)NC(=O)CC(C)C)[C@@H](C)O)CSSC[C@@H](C(=O)N[C@@H](CCCCN)C(N)=O)NC(=O)CNC(=O)[C@H](CCCCN)NC(=O)[C@H](CO)NC(=O)[C@H](CCCNC(=N)N)NC(=O)[C@@H]2CCCN2C(=O)[C@H](CCC(=O)O)NC(=O)[C@H](Cc2ccccc2)NC1=O)C(=O)O [Compound 46, Isovaleric_Acid-ETHFPCI(K(IsoGlu_Palm))FEPRSKGCK-NH2] (HELM PEPTIDE1{[CC(C)CC(=O)[*:2]].E.T.H.F.P.C.I.K.F.E.P.R.S.K.G.C.K.[am]}|PEPTIDE2{[CCCCCCCCCCCCCCCC(=O)[*:2]].[gGlu]}$PEPTIDE1,PEPTIDE2,9:R3-2:R2|PEPTIDE1,PEPTIDE1,7:R3-17:R3$$$V2.0) the “RBC count (in words)” value (SCD mice, 2.5 mg/kg dose) was “significantly reduced”, the “Percent of reticulocytes (in words)” value (SCD mice, 2.5 mg/kg dose, compared to vehicle control) was “decreased percent of reticulocytes significantly” and the “Mean corpuscular hemoglobin concentration (MCHC) (in words)” value (SCD mice, 2.5 mg/kg, compared to vehicle control) was “significant increase in MCHC”. The “Hematocrit (HCT) (in words)” value (SCD mice, across doses) was “significant reduction of HCT in a dose dependent manner”, the “Lymphocyte count (in words)” value (SCD mice, across doses) was “significant WBC and lymphocyte reduction in a dose dependent manner; also recorded: alleviated elevated white blood cell (WBC) and lymphocytes counts” and the “Neutrophil count (in words)” value (SCD mice, across doses) was “significantly decreased neutrophil count in a dose dependent manner; also recorded: alleviated elevated neutrophil and monocyte counts”. For the same compound, the “Serum lactate dehydrogenase (LDH) (in words)” value (SCD mice, across doses) was “significantly reduced both parameters in a dose dependent manner”, the “Serum total bilirubin (in words)” value (SCD mice, across doses) was “significantly reduced both parameters in a dose dependent manner” and the “White blood cell (WBC) count (in words)” value (SCD mice, across doses) was “significant WBC and lymphocyte reduction in a dose dependent manner; also recorded: alleviated elevated white blood cell (WBC) and lymphocytes counts”. For the same compound, the “Mean corpuscular volume (MCV) (in words)” value (SCD mice, across doses, compared to the vehicle group) was “significant reduction of MCV in a dose dependent manner”, the “Hgb level (in words)” value (SCD mice, all three dose groups) was “significantly reduced in all three dose groups” and the “Mean corpuscular hemoglobin (MCH) (in words)” value (SCD mice, compared to vehicle control) was “significant reduction in MCH”. For the same compound, the “Liver to body weight ratios (in words)” value [1] was “significantly lower in a dose dependent manner”, the “Liver weight / liver size (in words)” value [1] was “significantly lower in a dose dependent manner; also recorded: reduces liver size” and the “Spleen to body weight ratios (in words)” value [1] was “significantly and dose-dependently lower”. For the same compound, the “Spleen weights / spleen size (in words)” value [1] was “significantly and dose-dependently lower; also recorded: reduces spleen size”, the “Monocyte count (in words)” value (Townes SCD mice) was “alleviated elevated neutrophil and monocyte counts” and the “% Retics” value [2] was 65.78%. The “Abs Retics” value [2] was 2612 K/uL, the HCT [2] was 29.62% and the HGB [2] was 5.89 g/dL. For the same compound, the MCH [2] was 9.89 pg, the MCHC [2] was 19.82 g/dL and the MCV [2] was 50.11 fL. For the same compound, the RBC [2] was 5.94 M/uL, the “% Retics” value [3] was 50.33% and the “Abs Retics” value [3] was 1195 K/uL. The HCT [3] was 16.27%, the HGB [3] was 4.39 g/dL and the MCH [3] was 9.82 pg. It also gave an MCHC [3] of 23.22 g/dL, an MCV [3] of 42.56 fL and an RBC [3] of 4.49 M/uL. The LDH [2] was 610.6 U/L, the Total bilirubin [2] was 2.16 mg/dL and the LDH [3] was 372.3 U/L. It also gave a Total bilirubin [3] of 1.13 mg/dL.
